Assays:
[1] = molecular target: T1, GppNHp-loaded KRAS4b (amino acids 1-169) G12C/C118S protein (Homo sapiens, UniProt P01116, C118S/G12C); test: Covalent cysteine 12 modification by MALDI-TOF MS, GppNHp-loaded KRAS G12C; assay type: binding; conditions: 15 minutes reaction time point
T1 construct: KRAS4b (amino acids 1-169) G12C/C118S protein; made in house
Description: (§1) Biological Example 1: Covalent Cysteine 12 Modification Analysis Using Matrix Assisted Laser Desorption Ionization-Time of Flight Mass Spectrometry (MALDI-TOF MS)
(§2) MALDI-TOF MS analysis was performed using 1 μM protein (KRAS G12C), and 1:2.5 protein to compound ratio.
(§3) Reaction: 1 μM of GppNHp, GTP, or GDP-loaded KRAS4b (amino acids 1-169) G12C/C118S protein (produced in-house by Protein Expression Laboratory, FNLCR/Leidos Biomed) in 20 mM 4-(2-hydroxyethyl)-1-piperazineethanesulfonic acid (HEPES) buffer containing 150 mM NaCl, 1 mM MgCl2, pH 7.3 was prepared freshly before assay. Twelve-μL aliquots of protein were dispensed onto low volume 384-well plate, then 30 nL of tested compounds from 1 mM DMSO stocks were added to appropriate wells using ECHO 555 acoustic liquid handler (Labcyte Inc.). For each reaction/assay, three blanks were prepared by mixing 12 μL of protein solution with 30 nL DMSO. The contents of the wells were carefully mixed by aspiration, and then each plate was sealed with an adhesive cover, centrifuged at 2000 g for 1 minute, and kept in the dark at room temperature until 5 min, 15 min, 30 min, 2 h, or 6 h collections.
(§4) Target pretreatment: Before each assay MALDI target (Bruker MPT 384 ground steel BC) was pre-treated by pipetting on each spot 0.75 μL of saturated sinapinic acid in acetonitrile (ACN).
(§5) Sample preparation: At collection time point, 2 μL of reaction mixtures were pipetted out into 15 μL MALDI matrix solution (saturated solution of sinapinic acid in 1:1 ACN:water solution containing 0.75% trifluoroacetic acid (TFA)) deposited on 384 well polypropylene plate. Resulting solution was mixed by aspiration, centrifuged at 2000 g for 1 minute, then 1.5 μL aliquots were dispensed on pre-treated MALDI target using Beckman Coulter Biomek FXP 96/384-Span-8 Laboratory Automation Workstation. Finally, the MALDI target was dried under mild vacuum to produce spots with fine crystalline structure.
(§6) Measurements: MALDI-TOF measurements were performed on a Bruker Daltonics rapiflex Tissuetyper TOF-TOF mass spectrometer using linear mode and mass range from 18.6 to 21.6 kDa. Detector gain was set to 3.3×(483 V), sample rate to 5 GS/s, real time smoothing to medium (175 MHz), laser smart beam pattern was set to: “MS Thin Layer M5”, and the laser frequency was 10000 Hz. Spectra were automatically collected using custom AutoXecute method. Laser power was auto adjusted using fuzzy control. The peak selection range was set to be between 19000 and 21500 Da. Peak evaluation uses half width parameter set to be smaller than 40 Da for processed spectrograms (centroid peak detection; smoothed by SavitzkyGolay algorithm using 7 m/z width and 2 cycles; baseline was subtracted using median algorithm with flatness 1 and median level 0.01). Fuzzy control used Proteins/Oligonucleotides protocol with minimum half width 1/10 times above threshold. Up to 40000 satisfactory shots were collected in 10000 shot steps. Dynamic termination was implemented to finish data collection when peak signal/noise ratio was reaching value of 50.
(§7) Spectra processing: Spectra were smoothed by SavitzkyGolay algorithm using 7 m/z width and three cycles. Centroid peak detection algorithm was used with signal to noise threshold set to 6, relative intensity threshold 4%, peak width 10 m/z and median baseline subtraction using flatness of 1 and median level of 0.01. Peak intensity and area under the peak were evaluated and recorded for all peaks between 19,300 Da and 21,550 Da.
(§8) Calculation of percent modification: Percent modification was calculated as a ratio of peak height for protein modified by compound to sum of peak height of remaining protein plus peak height for protein modified by compound. If multiple modifications were observed each was calculated as a ratio of peak height for given modification versus sum of peak heights for all observed protein species. Data reported in Table 4 are from 15 minutes reaction time point. […]

[2] = molecular target: T2, GTP-loaded KRAS4b (amino acids 1-169) G12C/C118S protein (Homo sapiens, UniProt P01116, C118S/G12C); test: Covalent cysteine 12 modification by MALDI-TOF MS, GTP-loaded KRAS G12C; assay type: binding; conditions: 15 minutes reaction time point
T2 construct: KRAS4b (amino acids 1-169) G12C/C118S protein; made in house
Description: as §1, §2, §3, §4, §5, §6, §7, §8

[3] = molecular target: T3, GDP-loaded KRAS4b (amino acids 1-169) G12C/C118S protein (Homo sapiens, UniProt P01116, C118S/G12C); test: Covalent cysteine 12 modification by MALDI-TOF MS, GDP-loaded KRAS G12C; assay type: binding; conditions: 15 minutes reaction time point
T3 construct: KRAS4b (amino acids 1-169) G12C/C118S protein; made in house
Description: as §1, §2, §3, §4, §5, §6, §7, §8

pERK in NCI-H358 cells = test: Cell-based pERK HTRF assay (pERK inhibition in H358 cells); conditions: Homo sapiens, NCI-H358, 0.5 h, 30 min incubation
Description: Biological Example 3: Cell-Based pERK HTRF Assay
pERK assays (Perkin Elmer) were used to determine the effectiveness of compounds of the present disclosure in disrupting KRAS G12C protein/effector signaling in cells.
On Day 1, cells (NCI-H358) were seeded into 96-well plates at 4×10^4 cells/well in complete growth media (RPMI, 10% FBS).
On Day 2, cells were treated with compounds at 0.25% DMSO. The source plate was created with compounds diluted in media at 5-fold the final assay concentration. The compounds were run in a 9-point concentration curve starting at 75 μM, with a 3-fold dilution between concentrations. 20 μL was transferred onto the cell plates (final volume in wells was 100 μL). Plates were harvested after 30 min incubation by aspirating media and adding kit-supplied 1× supplemented lysis buffer to all wells (75 μl per well). Plates were then placed on a plate shaker and incubated at 850 rpm for an additional 30 min.
Antibody mixture solution was prepared by diluting aliquoted d2 and Eu Cryptate antibodies 1:20 in kit supplied detection buffer, then mixed the diluted antibodies solutions (1:1 v:v). 4 μL of this solution was then added to a 384-well detection plate (Perkin Elmer; 6008230).
Samples were homogenized by pipetting up and down and then transferred (16 μL of cell lysates) from the 96-well cell culture plate to two wells of the HTRF 384-well detection plate containing the antibody solution. Plates were centrifuged (524 g for […]) and allowed to incubate between 4 and 24 h at room temperature. Maximum signal is reached after 4 h incubation time and remains stable over a period of 24 hours. Therefore, readings can be made between 4 and 24 h of incubation. Plates were centrifuged again (524 g for 1 min), and analyzed on the En Vision plate reader using the following settings: Excitation 320 nm, Bandwidth 75 nm; Emission 615 nm, Bandwidth 85 nm; Gain 100%; Flashes 100; Lag 60 μs.
The percent of modification of GppNHp, GTP, or GDP loaded KRAS G12C by MALDI-TOF MS, biochemical Raf1 RBD-KRAS G12C-GppNHp disruption assay IC50, and pERK inhibition IC50 of selected compounds described herein are shown in Table 4. For percent of modification at 15 minutes (MALDI-TOF MS) of GppNHp, GTP, or GDP loaded KRAS G12C: A: percent of modification ≥70%; B: 50≤percent of modification <70%; C: 10%≤percent of modification <50%; D: percent of modification <10%. […] For pERK inhibition in H358 cell assay: A: IC50≤0.1 μM; B: 0.1 μM<IC50≤1 μM; C: IC50>1 μM. Blanks in the table represent that compound was not tested in the indicated assay.

C[C@@H]1CN(c2nc(OC[C@@]34CCCN3C[C@H](F)C4)nc3c(F)c(-c4ccc(F)c5sc(N)c(C#N)c45)c(C(F)(F)F)cc23)[C@@H](C)CN1C(=O)[C@@H](F)Cl [Compound 180]
GppNHp-KRAS G12C percent of modification [1]: D (percent of modification <10%) | GTP-KRAS G12C percent of modification [2]: D (percent of modification <10%) | GDP-KRAS G12C percent of modification [3]: C (10%≤percent of modification <50%) | IC50 (pERK in NCI-H358 cells): < 100 nM

C=CC(=O)N1CC[C@@H](N(C)c2nc(O[C@@H](C)[C@@H]3C(=C(F)F)CCN3C)nc3c(F)c(-c4ccc(F)c5sc(N)c(C#N)c45)c(Cl)cc23)[C@H]1C [Compound 201]
GppNHp-KRAS G12C percent of modification [1]: B (50≤percent of modification <70%) | GTP-KRAS G12C percent of modification [2]: C (10%≤percent of modification <50%) | GDP-KRAS G12C percent of modification [3]: B (50≤percent of modification <70%) | IC50 (pERK in NCI-H358 cells): 100 to 1000 nM

C[C@@H]1[C@H](N(C)c2nc(OC[C@@]34CCCN3C[C@H](F)C4)nc3c(F)c(-c4ccc(F)c5sc(N)c(C#N)c45)c(C(F)(F)F)cc23)CCN1C(=O)[C@H](F)Cl (atropisomer, axis not shown; (aS)) [Compound 182, 2-amino-4-((R)-4-(((2R,3R)-1-((R)-2-chloro-2-fluoroacetyl)-2-methylpyrrolidin-3-yl)(methyl)amino)-8-fluoro-2-(((2R,7aS)-2-fluorotetrahydro-1H-pyrrolizin-7a(5H)-yl)methoxy)-6-(trifluoromethyl)quinazolin-7-yl)-7-fluorobenzo[b]thiophene-3-carbonitrile]
GppNHp-KRAS G12C percent of modification [1]: D (percent of modification <10%) | GTP-KRAS G12C percent of modification [2]: D (percent of modification <10%) | GDP-KRAS G12C percent of modification [3]: D (percent of modification <10%) | IC50 (pERK in NCI-H358 cells): 100 to 1000 nM

C=CC(=O)N1CC[C@@H](N(C)c2nc(OC[C@@H]3CC(=C(F)F)CN3C)nc3c(F)c(-c4ccc(F)c5sc(N)c(C#N)c45)c(C(F)(F)F)cc23)[C@H]1C [Compound 205]
GppNHp-KRAS G12C percent of modification [1]: B (50≤percent of modification <70%) | GTP-KRAS G12C percent of modification [2]: C (10%≤percent of modification <50%) | GDP-KRAS G12C percent of modification [3]: C (10%≤percent of modification <50%) | IC50 (pERK in NCI-H358 cells): < 100 nM

C=CC(=O)N1CC[C@@H](N(C)c2nc(OC[C@@H]3[C@@H](OC)CCN3C)nc3c(F)c(-c4ccc(F)c5sc(N)c(C#N)c45)c(C(F)(F)F)cc23)[C@H]1C [Compound 197]
GppNHp-KRAS G12C percent of modification [1]: A (percent of modification ≥70%) | GTP-KRAS G12C percent of modification [2]: A (percent of modification ≥70%) | GDP-KRAS G12C percent of modification [3]: A (percent of modification ≥70%) | IC50 (pERK in NCI-H358 cells): < 100 nM

C[C@@H]1CN(c2nc(OC[C@@]34CCCN3C[C@H](F)C4)nc3c(F)c(-c4ccc(F)c5sc(N)c(C#N)c45)c(C(F)(F)F)cc23)[C@@H](C)CN1C(=O)[C@H](F)Cl [Compound 181]
GppNHp-KRAS G12C percent of modification [1]: D (percent of modification <10%) | GTP-KRAS G12C percent of modification [2]: D (percent of modification <10%) | GDP-KRAS G12C percent of modification [3]: D (percent of modification <10%) | IC50 (pERK in NCI-H358 cells): 100 to 1000 nM

CO[C@@H]1C[C@@H](COc2nc(N(C)[C@@H]3CCN(C(=O)/C=C/c4nc(C(C)(F)F)no4)[C@@H]3C)c3cc(C(F)(F)F)c(-c4ccc(F)c5sc(N)c(C#N)c45)c(F)c3n2)N(C)C1 [Compound 189]
GppNHp-KRAS G12C percent of modification [1]: B (50≤percent of modification <70%) | GTP-KRAS G12C percent of modification [2]: C (10%≤percent of modification <50%) | GDP-KRAS G12C percent of modification [3]: B (50≤percent of modification <70%) | IC50 (pERK in NCI-H358 cells): < 100 nM

C[C@@H]1CN(c2nc(OC[C@@]34CCCN3C[C@H](F)C4)nc3c(F)c(-c4ccc(F)c5sc(N)c(C#N)c45)c(Cl)cc23)[C@@H](C)CN1C(=O)/C=C/c1nc(C(C)(F)F)no1 [Compound 191]
GppNHp-KRAS G12C percent of modification [1]: B (50≤percent of modification <70%) | GTP-KRAS G12C percent of modification [2]: B (50≤percent of modification <70%) | GDP-KRAS G12C percent of modification [3]: B (50≤percent of modification <70%) | IC50 (pERK in NCI-H358 cells): 100 to 1000 nM

C=CC(=O)N1CC[C@@H](N(C)c2nc(O[C@@H](C)[C@@H]3[C@@H](OC)CCN3C)nc3c(F)c(-c4ccc(F)c5sc(N)c(C#N)c45)c(C(F)(F)F)cc23)[C@H]1C [Compound 193]
GppNHp-KRAS G12C percent of modification [1]: A (percent of modification ≥70%) | GTP-KRAS G12C percent of modification [2]: A (percent of modification ≥70%) | GDP-KRAS G12C percent of modification [3]: A (percent of modification ≥70%) | IC50 (pERK in NCI-H358 cells): < 100 nM

C=CC(=O)N1CC[C@@H](N(C)c2nc(O[C@@H](C)[C@@H]3C(=C)CCN3C)nc3c(F)c(-c4ccc(F)c5sc(N)c(C#N)c45)c(Cl)cc23)[C@H]1C [Compound 200]
GppNHp-KRAS G12C percent of modification [1]: A (percent of modification ≥70%) | GTP-KRAS G12C percent of modification [2]: B (50≤percent of modification <70%) | GDP-KRAS G12C percent of modification [3]: C (10%≤percent of modification <50%) | IC50 (pERK in NCI-H358 cells): < 100 nM

C[C@@H]1[C@H](N(C)c2nc(OC[C@@]34CCCN3C[C@H](F)C4)nc3c(F)c(-c4ccc(F)c5sc(N)c(C#N)c45)c(C(F)(F)F)cc23)CCN1C(=O)[C@@H](F)Cl (atropisomer, axis not shown) [Compound 184]
GppNHp-KRAS G12C percent of modification [1]: D (percent of modification <10%) | GTP-KRAS G12C percent of modification [2]: D (percent of modification <10%) | GDP-KRAS G12C percent of modification [3]: D (percent of modification <10%) | IC50 (pERK in NCI-H358 cells): 100 to 1000 nM
